According to US8846933B2, “N-link hydroxamic acid derivatives useful as antibacterial agents” (Pfizer Inc., priority 2009, dated 2014):

What was measured:
[1] = test system: Pseudomonas aeruginosa UI-18: Wild-type (PA-7); assay: MIC determination (CLSI), strain PA-7; assay type: cell-based; conditions: strain PA-7, unit assumed
How it was run: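 Strain tested was P. aeruginosa UI-18, a wild-type isolate labelled PA-7. Minimum inhibitory concentrations followed CLSI dilution methodology for aerobically growing bacteria (M7-A7, M100-S18).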

[2] = test system: Escherichia coli EC-1: VOGEL, mouse virulent; assay: MIC determination (CLSI), strain EC-1; assay type: cell-based; conditions: strain EC-1, unit assumed
How it was run: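 The mouse-virulent VOGEL isolate of E. coli, EC-1, served as test organism. Minimum inhibitory concentration was measured by CLSI dilution methodology (M7-A7; M100-S18 standards).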

[3] = generated in the same manner as in Table 4

Row | Structure (SMILES) | PA-7 (MIC) [1] | EC-1 (MIC) [2] | PA-7 (MIC) [1, 3] | EC-1 (MIC) [2, 3]
1 | C[C@@](CCn1ccc(-c2ccc(OC[C@H]3CC[C@H](O)CC3)c(F)c2)cc1=O)(C(=O)NO)S(C)(=O)=O [Example 318, (2R)-4-[4-{3-fluoro-4-[(trans-4-hydroxycyclohexyl)methoxy]phenyl}-2-oxopyridin-1(2H)-yl]-N-hydroxy-2-methyl-2-(methylsulfonyl)butanamide] | 1 µg/mL | 0.25 µg/mL |  | 
2 | C[C@@](CCn1ccc(-c2ccc(C3(O)CCC3)cc2)cc1=O)(C(=O)NO)S(C)(=O)=O [Example 351, (2R)-N-hydroxy-4-{4-[4-(1-hydroxycyclobutyl)phenyl]-2-oxopyridin-1(2H)-yl}-2-methyl-2-(methylsulfonyl)butanamide] | 16 µg/mL | 16 µg/mL |  | 
3 | CC(CCn1ccc(-c2ccc(OCCCN3CCOCC3)cc2)cc1=O)(C(=O)NO)S(C)(=O)=O (stereo not shown) [Example 71, N-hydroxy-2-methyl-2-(methylsulfonyl)-4-{4-[4-(3-morpholin-4-ylpropoxy)phenyl]-2-oxopyridin-1(2H)-yl}butanamide] |  |  | 4 µg/mL | 2 µg/mL
4 | COc1ccc(-c2ccn(CC[C@](C)(C(=O)NO)S(C)(=O)=O)c(=O)c2)c(C)c1 [Example 345, (2R)-N-hydroxy-4-[4-(4-methoxy-2-methylphenyl)-2-oxopyridin-1(2H)-yl]-2-methyl-2-(methylsulfonyl)butanamide] | 4 µg/mL | 4 µg/mL |  | 
5 | CC(CCn1ccc(-c2ccc(C#N)c(F)c2)cc1=O)(C(=O)NO)S(C)(=O)=O (stereo not shown) [Example 207, 4-[4-(4-cyano-3-fluorophenyl)-2-oxopyridin-1(2H)-yl]-N-hydroxy-2-methyl-2-(methylsulfonyl)butanamide] | 16 µg/mL | 16 µg/mL |  | 
6 | Cc1cc(-c2cc(CO)no2)ccc1-c1ccn(CCC(C)(C(=O)NO)S(C)(=O)=O)c(=O)c1 (stereo not shown) [Example 286] | 16 µg/mL | 16 µg/mL |  | 
7 | CC(C)(CO)c1ccc(-c2ccn(CC[C@](C)(C(=O)NO)S(C)(=O)=O)c(=O)c2)cc1 [Example 350, (2R)-N-hydroxy-4-{4-[4-(2-hydroxy-1,1-dimethylethyl)phenyl]-2-oxopyridin-1(2H)-yl}-2-methyl-2-(methylsulfonyl)butanamide] | 16 µg/mL | 16 µg/mL |  | 
8 | Cc1nccn1-c1ccc(-c2ccn(CC[C@](C)(C(=O)NO)S(C)(=O)=O)c(=O)c2)cc1 [Example 368, (2R)-N-hydroxy-2-methyl-4-{4-[4-(2-methyl-1H-imidazol-1-yl)phenyl]-2-oxopyridin-1(2H)-yl}-2-(methylsulfonyl)butanamide] | 16 µg/mL | > 64 µg/mL |  | 
9 | COc1cc(-c2ccn(CC[C@](C)(C(=O)NO)S(C)(=O)=O)c(=O)c2)c(F)cc1C#N [Example 477] | 32 µg/mL | 64 µg/mL |  | 
10 | COc1cc(OCCCO)ccc1-c1ccn(CCC(C)(C(=O)NO)S(C)(=O)=O)c(=O)c1 (stereo not shown) [Example 253, N-hydroxy-4-{4-[4-(3-hydroxypropoxy)-2-methoxyphenyl]-2-oxopyridin-1(2H)-yl}-2-methyl-2-(methylsulfonyl)butanamide] | > 64 µg/mL | 16 µg/mL |  | 
11 | COc1ccc(-c2ccn(CC[C@](C)(C(=O)NO)S(C)(=O)=O)c(=O)c2C)c(F)c1 [Example 393, (2R)-4-[4-(2-fluoro-4-methoxyphenyl)-3-methyl-2-oxopyridin-1(2H)-yl]-N-hydroxy-2-methyl-2-(methylsulfonyl)butanamide] | 1 µg/mL | 0.5 µg/mL |  | 
12 | CC(C)c1cccc(-c2ccn(CC[C@](C)(C(=O)NO)S(C)(=O)=O)c(=O)c2)c1 [Example 466] | 4 µg/mL | 2 µg/mL |  | 
13 | COc1cc(-c2ccn(CCC(C)(C(=O)NO)S(C)(=O)=O)c(=O)c2)ccc1OCCCCO (stereo not shown) [Example 242, N-hydroxy-4-{4-[4-(4-hydroxybutoxy)-3-methoxyphenyl]-2-oxopyridin-1(2H)-yl}-2-methyl-2-(methylsulfonyl)butanamide] | 64 µg/mL | 32 µg/mL |  | 
14 | CC(CCn1ccc(-c2ccc(OCCCN3CCC(F)(F)C3)cc2)cc1=O)(C(=O)NO)S(C)(=O)=O (stereo not shown) [Example 93, 4-[4-{4-[3-(3,3-difluoropyrrolidin-1-yl)propoxy]phenyl}-2-oxopyridin-1(2H)-yl]-N-hydroxy-2-methyl-2-(methylsulfonyl)butanamide] |  |  | 8 µg/mL | 1 µg/mL
15 | CC(CCn1ccc(-c2ccc(OCCO)c(F)c2)cc1=O)(C(=O)NO)S(C)(=O)=O (stereo not shown) [Example 76, 4-{4-[3-fluoro-4-(2-hydroxyethoxy)phenyl]-2-oxopyridin-1(2H)-yl}-N-hydroxy-2-methyl-2-(methylsulfonyl)butanamide] |  |  | 32 µg/mL | 16 µg/mL
16 | C/C(=N\O)c1ccc(-c2ccn(CCC(C)(C(=O)NO)S(C)(=O)=O)c(=O)c2)cc1 (stereo not shown) [Example 80, N-hydroxy-4-[4-{4-[(1E)-N-hydroxyethanimidoyl]phenyl}-2-oxopyridin-1(2H)-yl]-2-methyl-2-(methylsulfonyl)butanamide] |  |  | 32 µg/mL | 8 µg/mL

Row | Structure (SMILES) | PA-7 (MIC) [1] | EC-1 (MIC) [2] | PA-7 (MIC) [1, 3] | EC-1 (MIC) [2, 3]
17 | CC(CCn1ccc(-c2ccc(OCCCCS(N)(=O)=O)cc2Cl)cc1=O)(C(=O)NO)S(C)(=O)=O (stereo not shown) [Example 276, 4-[4-{4-[4-(aminosulfonyl)butoxy]-2-chlorophenyl}-2-oxopyridin-1(2H)-yl]-N-hydroxy-2-methyl-2-(methylsulfonyl)butanamide] | 32 µg/mL | 16 µg/mL |  | 
18 | CC(CCn1ccc(-c2ccc(C#N)cc2)cc1=O)(C(=O)NO)S(C)(=O)=O (stereo not shown) [Example 198, 4-[4-(4-cyanophenyl)-2-oxopyridin-1(2H)-yl]-N-hydroxy-2-methyl-2-(methylsulfonyl)butanamide] | 8 µg/mL | 16 µg/mL |  | 
19 | Cc1nn(-c2ccc(-c3ccn(CC[C@](C)(C(=O)NO)S(C)(=O)=O)c(=O)c3)cc2)nc1C [Example 373, (2R)-4-{4-[4-(4,5-dimethyl-2H-1,2,3-triazol-2-yl)phenyl]-2-oxopyridin-1(2H)-yl}-N-hydroxy-2-methyl-2-(methylsulfonyl)butanamide] | 1 µg/mL | 0.125 µg/mL |  | 
20 | CC(CCn1ccc(-c2ccc(OCCCN3CCCC3)cc2)cc1=O)(C(=O)NO)S(C)(=O)=O (stereo not shown) [Example 78] |  |  | > 64 µg/mL | > 64 µg/mL
21 | Cc1cc(OCCCO)ccc1-c1ccn(CCC(C)(C(=O)NO)S(C)(=O)=O)c(=O)c1 (stereo not shown) [Example 252, N-hydroxy-4-{4-[4-(3-hydroxypropoxy)-2-methylphenyl]-2-oxopyridin-1(2H)-yl}-2-methyl-2-(methylsulfonyl)butanamide] | 16 µg/mL | 16 µg/mL |  | 
22 | CC(=O)c1cccc(-c2ccn(CCC(C)(C(=O)NO)S(C)(=O)=O)c(=O)c2)c1 (stereo not shown) [Example 127, 4-[4-(3-acetylphenyl)-2-oxopyridin-1(2H)-yl]-N-hydroxy-2-methyl-2-(methylsulfonyl)butanamide] |  |  | 32 µg/mL | 16 µg/mL
23 | Cc1c(-c2ccc(Cl)cc2F)ccn(CC[C@](C)(C(=O)NO)S(C)(=O)=O)c1=O [Example 394, (2R)-4-[4-(4-chloro-2-fluorophenyl)-3-methyl-2-oxopyridin-1(2H)-yl]-N-hydroxy-2-methyl-2-(methylsulfonyl)butanamide] | 1 µg/mL | 1 µg/mL |  | 
24 | CCNC(=O)c1cc(F)cc(-c2ccn(CCC(C)(C(=O)NO)S(C)(=O)=O)c(=O)c2)c1 (stereo not shown) [Example 103, N-ethyl-3-fluoro-5-{1-[4-(hydroxyamino)-3-methyl-3-(methylsulfonyl)-4-oxobutyl]-2-oxo-1,2-dihydropyridin-4-yl}benzamide] |  |  | > 64 µg/mL | > 64 µg/mL
25 | Cc1cc(C#N)ccc1-c1ccn(CC[C@](C)(C(=O)NO)S(C)(=O)=O)c(=O)c1 [Example 472] | 8 µg/mL | 32 µg/mL |  | 
26 | COc1ccc(-c2ccn(CC[C@](C)(C(=O)NO)S(C)(=O)=O)c(=O)c2)cc1Cl [Example 334, (2R)-4-[4-(3-chloro-4-methoxyphenyl)-2-oxopyridin-1(2H)-yl]-N-hydroxy-2-methyl-2-(methylsulfonyl)butanamide] | 1 µg/mL | 8 µg/mL |  | 
27 | CC(CCn1ccc(-c2ccc(OCCCCCO)cc2)cc1=O)(C(=O)NO)S(C)(=O)=O (stereo not shown) [Example 229, N-hydroxy-4-[4-{4-[(5-hydroxypentyl)oxy]phenyl}-2-oxopyridin-1(2H)-yl]-2-methyl-2-(methylsulfonyl)butanamide] | 2 µg/mL | 0.25 µg/mL |  | 
28 | CC(CCn1ccc(-c2ccc(O)cc2)cc1=O)(C(=O)NO)S(C)(=O)=O (stereo not shown) [Example 97, N-hydroxy-4-[4-(4-hydroxyphenyl)-2-oxopyridin-1(2H)-yl]-2-methyl-2-(methylsulfonyl)butanamide] |  |  | > 64 µg/mL | > 64 µg/mL
29 | Cc1ccc(-c2ccn(CCC(C)(C(=O)NO)S(C)(=O)=O)c(=O)c2)cc1F (stereo not shown) [Example 151, 4-[4-(3-fluoro-4-methylphenyl)-2-oxopyridin-1(2H)-yl]-N-hydroxy-2-methyl-2-(methylsulfonyl)butanamide] |  |  | 2 µg/mL | 2 µg/mL
30 | C[C@@](CCn1ccc(-c2ccc(Cl)cc2Cl)cc1=O)(C(=O)NO)S(C)(=O)=O [Example 386] | 2 µg/mL | 2 µg/mL |  | 
31 | CC(CCn1ccc(-c2ccc(OCCCN3CCOCC3)cc2F)cc1=O)(C(=O)NO)S(C)(=O)=O (stereo not shown) [Example 226, 4-{4-[2-fluoro-4-(3-morpholin-4-ylpropoxy)phenyl]-2-oxopyridin-1(2H)-yl}-N-hydroxy-2-methyl-2-(methylsulfonyl)butanamide] | 8 µg/mL | 2 µg/mL |  | 
32 | C[C@@](CCn1ccc(-c2ccc(OC(F)(F)F)cc2F)cc1=O)(C(=O)NO)S(C)(=O)=O [Example 354, (2R)-4-{4-[2-fluoro-4-(trifluoromethoxy)phenyl]-2-oxopyridin-1(2H)-yl}-N-hydroxy-2-methyl-2-(methylsulfonyl)butanamide] | 0.5 µg/mL | 0.25 µg/mL |  | 
